Measurements: article PMC3894693 (Biochemical and biophysical research communications, 2013)

How the values were obtained:
[1] = target: T1, Pyruvate carboxylase (RePC) (Rhizobium etli, UniProt Q2K340); experiment: X-ray co-crystal structure; type: binding
[2] = target: T1, Pyruvate carboxylase (RePC); experiment: ITC; type: binding

| Structure (SMILES) | Kd [1] | Kd [2] |
| --- | --- | --- |
| O=C(O)C(=O)O [oxalate] | 130 µM |  |
| CC(=O)C(=O)O [pyruvate] |  | ~2000 µM |
